The source of these data is patent US20090093443A1, “COMBINATIONS OF 4- BROMO-2-(4-CHLOROPHENYL)-5-(TRIFLUOROMETHYL)-1H-PYRROLE-3-CARBONITRILE AND BIOCIDAL COMPOUNDS” (JASSEN PHARMACEUTICA N.V., priority 2006, published 2009).

This assay relates to animal fouling. The assay is described as follows: Exposure in the Oosterschelde of painted PVC boards. The note with it: for Coverage CO (percentage coverage) / Dry weight Dw (dry weight of fouling organisms) / Fresh weight Fw (fresh weight of fouling organisms): 18 weeks exposure, each active 2.78% in dry paint film; for Coverage CO (percentage coverage): mean of front and backsides of panels; for Dry weight Dw (dry weight of fouling organisms) / Fresh weight Fw (fresh weight of fouling organisms): total of front and backsides; for Coverage % Eo (observed efficacy) / Dry weight % Eo (observed efficacy) / Fresh weight % Eo (observed efficacy): fouling inhibition vs control, 18 weeks, each active 2.78% in dry paint; for Coverage % Eo (observed efficacy): by coverage; for Dry weight % Eo (observed efficacy): by dry weight; for Fresh weight % Eo (observed efficacy): by fresh weight. From the text:
• Test model: exposure in the Oosterschelde of painted PVC boards • Name of the primary compound: 4-bromo-2-(4-chloro-phenyl)-5-(trifluoromethyl)-1H-pyrrole-3-carbonitrile as component (I) • Name of the combination partners: capsaicine as component (II-d); • clonidine as component (II-e); • zosteric acid as component (II-r). • Test formulations: Paint formulation comprising xylene (47.7%), light aromatic solvent naphtha (CAS 64742-95-6) (16.2%), propylene oxide (0.06%), and zinc oxid (2.24%). Paint was diluted with 10% xylene to obtain the wet paint which was applied to the panels. • Dosage: Individual test compounds were added at a concentration of 1.8% by weight in the wet paint, resulting in 2.78% by weight in the dry paint film. • Test specimens: PVC boards with dimensions of 10×2×0.5 cm. […] Percentage coverage of the panels by fouling organisms as estimated visually. • 2. Fresh weight of fouling organisms on panels in gram. • 3. Dry weight of fouling organisms on panels in gram. Synergy evaluation: Synergy was tested according to the method of Limpel (Limpel, L. E., Schuldt, P. H., and Lamont, D. Weed Control Conf. 16: 48-53, 1962) as described in Colby (Colby, S. R., Weeds 15: 20-22, 1967) and Richer (Richer, D. L., Pesticide Science 19: 309-315, 1987). The single active ingredients were applied at a concentration of 2.78% in the dried coating. In the combinations, both actives were applied at 2.78%, resulting in […] of total active ingredient.

Consider `O=C(O)/C=C/c1ccc(OS(=O)(=O)O)cc1` [(II-r), zosteric acid], for which the “Coverage CO (percentage coverage)” value was found to be 57.5%, the “Dry weight Dw (dry weight of fouling organisms)” value (“Dry weight Dw” for short) came out at 2.05 gram, the “Fresh weight Fw (fresh weight of fouling organisms)” value (shortened to “Fresh weight Fw”) was 5.40 gram and the “Coverage % Eo (observed efficacy)” value was −8.5%. In addition, the “Dry weight % Eo (observed efficacy)” value came to 34.5% and the “Fresh weight % Eo (observed efficacy)” value is −18.4%.

Consider `Clc1cccc(Cl)c1N=C1NCCN1` [(II-e), clonidine], for which the “Coverage CO (percentage coverage)” value stood at 72.5%, the “Dry weight Dw” value is recorded as 3.92 gram, the “Fresh weight Fw” value was found to be 6.10 gram and the “Coverage % Eo (observed efficacy)” value was −36.8%. For the same compound, the “Dry weight % Eo (observed efficacy)” value is given as −25.6% and the “Fresh weight % Eo (observed efficacy)” value is given as −33.8%.

Consider `COc1cc(CNC(=O)CCCC/C=C/C(C)C)ccc1O` [(II-d), capsaicine], for which the “Coverage CO (percentage coverage)” value came to 65.0%, the “Dry weight Dw” value was 3.58 gram, the “Fresh weight Fw” value is 5.50 gram and the “Coverage % Eo (observed efficacy)” value is −22.6%. Further, the “Dry weight % Eo (observed efficacy)” value is given as −14.6% and the “Fresh weight % Eo (observed efficacy)” value is recorded as −21.3%.

Turning to `N#Cc1c(-c2ccc(Cl)cc2)[nH]c(C(F)(F)F)c1Br` [(I), 4-bromo-2-(4-chlorophenyl)-5-(trifluoromethyl)-1H-pyrrole-3-carbonitrile], the “Coverage CO (percentage coverage)” value was 42.5%, the “Dry weight Dw” value stood at 1.94 gram, the “Fresh weight Fw” value amounted to 2.90 gram and the “Coverage % Eo (observed efficacy)” value is reported as 19.8%. Besides, the “Dry weight % Eo (observed efficacy)” value is listed as 37.9% and the “Fresh weight % Eo (observed efficacy)” value is 36.0%.
